# Patent US6248736A, “4-oxo-1,4-dihydro-3-quinolinecarboxamides as antiviral agents” (Pharmacia & Upjohn Company, priority 1999, dated 2001)
# Read-outs that look alike come from different tables or passages of the source.
# How the values were obtained:
# HCMV polymerase = biological target: T1, HCMV polymerase (Human cytomegalovirus, UniProt P08546); test: biochemical
# T1 construct: made in house; host or cells: recombinant baculovirus-infected SF-9 cells
# Method: (§1) The HCMV polymerase assay is performed using a scintillation proximity assay (SPA) as described in several references, such as N. D. Cook, et al., Pharmaceutical Manufacturing International, pages 49-53 (1992); K. Takeuchi, Laboratory Practice, September issue (1992); U.S. Pat. No. 4,568,649 (1986); which are incorporated by reference herein. Reactions are performed in 96-well plates. The assay is conducted in 100 μl volume with 5.4 mM HEPES (pH 7.5), 11.7 mM KCl, 4.5 mM MgCl2, 0.36 mg/ml BSA, and 90 nM ^3 H-dTTP. Assays are run with and without CHAPS, (3-[(3-Cholamidopropyl)-dimethylammonio]-1-propane-sulfonate) at a final concentration of 2 mM. HCMV polymerase is diluted in enzyme dilution buffer containing 50% glycerol, 250 mM NaCl, 10 mM HEPES (pH 7.5), 100 μg/ml BSA, and 0.01% sodium azide. The HCMV polymerase, which is expressed in recombinant baculovirus-infected SF-9 cells and purified according to literature procedures, is added at 10% (or 10 μl) of the final reaction volume, i.e., 100 μl. Compounds are diluted in 50% DMSO and 10 μl are added to each well. Control wells contain an equivalent concentration of DMSO. Unless noted otherwise, reactions are initiated via the addition of 6 nM biotinylated poly(dA)-oligo(dT) template/primer to reaction mixtures containing the enzyme, substrate, and compounds of interest. Plates are incubated in a 25 C or 37 C H2 O bath and terminated via the addition of 40 μl/reaction of 0.5 M EDTA (pH 8) per well. Reactions are terminated within the time-frame during which substrate incorporation is linear and varied depending upon the enzyme and conditions used, i.e., 30 min. for HCMV polymerase. Ten μl of streptavidin-SPA beads (20 mg/ml in PBS/10% glycerol) are added following termination of the reaction. Plates are incubated 10 min. at 37 C, then equilibrated to room temperature, and counted on a Packard Topcount. Linear regressions are performed and IC50 's are calculated using computer software.
# A modified version of the above HCMV polymerase assay is performed as described above, but with the following changes: Compounds are diluted in 100% DMSO until final dilution into assay buffer. In the previous assay, compounds are diluted in 50% DMSO. 4.5 mM dithiotherotol (DTT) is added to the polymerase buffer. […] Other viral polymerase assays are performed using procedures similar to those described above.
# VZV polymerase = VZV polymerase (Varicella-zoster virus, UniProt P09252); test: VZV polymerase assay (procedure similar to the HCMV polymerase assay); format: biochemical
# Sequence of VZV polymerase (P09252 whole entry): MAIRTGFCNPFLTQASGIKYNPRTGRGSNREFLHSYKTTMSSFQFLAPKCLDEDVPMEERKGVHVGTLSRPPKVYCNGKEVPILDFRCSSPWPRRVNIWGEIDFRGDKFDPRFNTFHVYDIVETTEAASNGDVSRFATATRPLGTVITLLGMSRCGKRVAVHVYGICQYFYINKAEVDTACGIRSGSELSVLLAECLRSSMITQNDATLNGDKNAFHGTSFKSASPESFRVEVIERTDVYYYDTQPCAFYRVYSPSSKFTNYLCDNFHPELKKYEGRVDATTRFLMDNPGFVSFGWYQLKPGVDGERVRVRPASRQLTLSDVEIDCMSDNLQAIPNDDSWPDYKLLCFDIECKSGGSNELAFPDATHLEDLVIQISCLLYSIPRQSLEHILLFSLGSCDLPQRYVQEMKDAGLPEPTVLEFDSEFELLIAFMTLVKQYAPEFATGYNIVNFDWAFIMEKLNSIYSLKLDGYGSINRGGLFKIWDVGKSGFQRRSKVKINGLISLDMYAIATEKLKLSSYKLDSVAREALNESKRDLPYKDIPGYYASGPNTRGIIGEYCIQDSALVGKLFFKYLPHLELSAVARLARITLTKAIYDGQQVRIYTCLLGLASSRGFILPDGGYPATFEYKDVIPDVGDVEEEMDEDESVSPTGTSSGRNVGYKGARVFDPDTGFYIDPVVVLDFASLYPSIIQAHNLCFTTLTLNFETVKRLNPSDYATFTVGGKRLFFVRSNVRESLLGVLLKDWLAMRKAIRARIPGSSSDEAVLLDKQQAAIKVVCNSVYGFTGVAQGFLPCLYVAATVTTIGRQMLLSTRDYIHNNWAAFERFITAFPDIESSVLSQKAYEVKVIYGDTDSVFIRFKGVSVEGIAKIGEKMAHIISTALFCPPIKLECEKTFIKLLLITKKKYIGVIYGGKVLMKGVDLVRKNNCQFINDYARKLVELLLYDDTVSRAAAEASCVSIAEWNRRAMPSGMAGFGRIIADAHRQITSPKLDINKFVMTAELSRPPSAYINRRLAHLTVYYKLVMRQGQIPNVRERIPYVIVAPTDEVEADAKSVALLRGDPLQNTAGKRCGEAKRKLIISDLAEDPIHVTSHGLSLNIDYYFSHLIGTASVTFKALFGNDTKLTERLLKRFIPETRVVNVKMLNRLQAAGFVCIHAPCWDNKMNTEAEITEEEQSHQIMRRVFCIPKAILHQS
# Method: as §1, with “software. […]” for “software.”
# HSV polymerase = HSV polymerase (Human herpesvirus 1, UniProt P04293); test: HSV polymerase assay (procedure similar to the HCMV polymerase assay); format: biochemical
# Sequence of HSV polymerase (P04293 whole entry): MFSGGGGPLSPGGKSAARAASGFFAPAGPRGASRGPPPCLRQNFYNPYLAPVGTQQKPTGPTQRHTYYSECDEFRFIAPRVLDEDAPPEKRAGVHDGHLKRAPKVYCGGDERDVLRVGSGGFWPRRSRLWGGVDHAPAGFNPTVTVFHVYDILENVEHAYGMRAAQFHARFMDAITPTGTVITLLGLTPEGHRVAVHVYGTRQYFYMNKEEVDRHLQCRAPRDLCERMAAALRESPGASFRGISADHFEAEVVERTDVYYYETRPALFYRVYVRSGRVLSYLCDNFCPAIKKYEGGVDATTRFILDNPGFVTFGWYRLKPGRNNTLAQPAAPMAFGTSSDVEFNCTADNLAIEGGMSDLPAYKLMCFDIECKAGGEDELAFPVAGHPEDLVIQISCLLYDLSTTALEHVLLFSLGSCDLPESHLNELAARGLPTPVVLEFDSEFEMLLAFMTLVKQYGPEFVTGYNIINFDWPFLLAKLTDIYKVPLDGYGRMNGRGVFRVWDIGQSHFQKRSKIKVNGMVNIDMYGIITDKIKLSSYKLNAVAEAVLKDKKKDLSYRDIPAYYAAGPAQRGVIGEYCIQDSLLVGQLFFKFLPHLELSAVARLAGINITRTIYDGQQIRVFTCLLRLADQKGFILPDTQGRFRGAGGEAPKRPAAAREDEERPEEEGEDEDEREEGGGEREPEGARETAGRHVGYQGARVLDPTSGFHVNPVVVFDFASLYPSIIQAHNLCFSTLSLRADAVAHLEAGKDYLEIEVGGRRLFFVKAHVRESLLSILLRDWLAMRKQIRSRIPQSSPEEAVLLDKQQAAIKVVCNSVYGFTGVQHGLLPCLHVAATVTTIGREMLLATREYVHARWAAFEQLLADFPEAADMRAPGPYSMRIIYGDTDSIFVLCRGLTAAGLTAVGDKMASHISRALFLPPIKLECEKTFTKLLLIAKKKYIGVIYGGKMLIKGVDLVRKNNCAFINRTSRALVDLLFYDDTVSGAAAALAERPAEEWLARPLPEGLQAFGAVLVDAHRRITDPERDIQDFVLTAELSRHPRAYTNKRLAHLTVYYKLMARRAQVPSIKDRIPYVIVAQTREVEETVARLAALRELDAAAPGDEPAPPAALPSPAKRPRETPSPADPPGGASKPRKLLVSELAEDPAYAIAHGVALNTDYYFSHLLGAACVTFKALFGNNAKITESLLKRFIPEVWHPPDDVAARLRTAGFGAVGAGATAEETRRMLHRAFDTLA
# Method: as §1, with “software. […]” for “software.”
# [1] = HCMV polymerase, modified SPA, compounds in 100% DMSO, 4.5 mM DTT added
# T1 sequence (P08546 whole entry): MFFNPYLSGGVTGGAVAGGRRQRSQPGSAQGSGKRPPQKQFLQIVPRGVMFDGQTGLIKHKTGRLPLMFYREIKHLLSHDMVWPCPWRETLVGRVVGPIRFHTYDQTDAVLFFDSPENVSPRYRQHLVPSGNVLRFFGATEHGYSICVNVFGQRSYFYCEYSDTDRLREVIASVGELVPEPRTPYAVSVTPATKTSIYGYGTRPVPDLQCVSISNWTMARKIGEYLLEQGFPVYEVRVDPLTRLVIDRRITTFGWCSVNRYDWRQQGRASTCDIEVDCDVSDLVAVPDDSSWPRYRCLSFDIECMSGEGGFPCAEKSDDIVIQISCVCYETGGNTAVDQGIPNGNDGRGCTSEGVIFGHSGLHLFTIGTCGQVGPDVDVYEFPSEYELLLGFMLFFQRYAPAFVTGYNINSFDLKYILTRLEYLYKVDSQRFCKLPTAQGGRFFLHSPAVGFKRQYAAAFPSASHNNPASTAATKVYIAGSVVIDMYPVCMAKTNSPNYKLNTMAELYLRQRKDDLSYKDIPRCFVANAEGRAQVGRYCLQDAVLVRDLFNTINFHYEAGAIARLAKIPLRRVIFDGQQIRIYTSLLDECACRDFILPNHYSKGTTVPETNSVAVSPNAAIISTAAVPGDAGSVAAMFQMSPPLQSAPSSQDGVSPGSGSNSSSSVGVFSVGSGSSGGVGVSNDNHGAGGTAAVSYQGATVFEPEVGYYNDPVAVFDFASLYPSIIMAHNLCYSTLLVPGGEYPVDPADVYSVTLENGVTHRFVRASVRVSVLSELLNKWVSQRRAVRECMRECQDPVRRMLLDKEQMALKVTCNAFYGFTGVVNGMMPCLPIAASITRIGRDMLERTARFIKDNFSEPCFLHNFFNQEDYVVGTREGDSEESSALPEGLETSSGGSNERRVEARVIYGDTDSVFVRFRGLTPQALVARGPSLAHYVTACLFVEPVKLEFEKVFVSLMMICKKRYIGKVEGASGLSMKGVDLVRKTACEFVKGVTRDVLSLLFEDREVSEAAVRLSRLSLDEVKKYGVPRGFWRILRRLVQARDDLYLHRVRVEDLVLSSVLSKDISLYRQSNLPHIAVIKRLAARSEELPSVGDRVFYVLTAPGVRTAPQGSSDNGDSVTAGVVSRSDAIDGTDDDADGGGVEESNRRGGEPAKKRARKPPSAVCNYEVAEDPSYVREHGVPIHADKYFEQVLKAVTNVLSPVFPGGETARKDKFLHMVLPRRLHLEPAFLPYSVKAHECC
SMILES,IC50 (HCMV polymerase; [1]) [nM],IC50 (VZV polymerase) [nM],IC50 (HSV polymerase) [nM],IC50 (HCMV polymerase) [nM]
"Cn1cc(C(=O)NCc2ccc(Cl)cc2)c(=O)c2cc(CN3CCOCC3)ccc21 [Example 3, N-(4-Chlorobenzyl)-1-methyl-6-(4-morpholinylmethyl)-4-oxo-1,4-dihydro-3-quinolinecarboxamide]",400,440,740,–
"O=C(NCc1ccc(Cl)cc1)c1cn(CCO)c2ccc(CCCO)cc2c1=O [Example 4, N-(4-Chlorobenzyl)-1-(2-hydroxyethyl)-6-(3-hydroxypropyl)-4-oxo-1,4-dihydro-3-quinolinecarboxamide]",370,–,–,–
"Cn1cc(C(=O)NCc2ccc(Cl)cc2)c(=O)c2cc(CCCO)ccc21 [Example 5, N-(4-Chlorobenzyl)-6-(3-hydroxypropyl)-1-methyl-4-oxo-1,4-dihydro-3-quinolinecarboxamide]",480,410,320,–
"CC(C)(C)n1cc(C(=O)NCc2ccc(Cl)cc2)c(=O)c2cc(CCCO)ccc21 [Example 6, 1-(tert-Butyl)-N-(4-chlorobenzyl)-6-(3-hydroxypropyl)-4-oxo-1,4-dihydro-3-quinolinecarboxamide]",–,–,–,2800
"Cn1cc(C(=O)NCc2ccc(Cl)cc2)c(=O)c2cc(CN3CCS(=O)(=O)CC3)ccc21 [Example 8, N-(4-chlorobenzyl)-6-[(1,1-dioxo-1',4-thiazinan-4-yl)methyl]-1-methyl-4-oxo-1,4-dihydro-3-quinolinecarboxamide]",2600,–,–,–
"Cn1cc(C(=O)NCc2ccc(Cl)cc2)c(=O)c2cc(CN3CCOCC3)cc(F)c21 [Example 10, N-(4-chlorobenzyl)-8-fluoro-1-methyl-6-(4-morpholinylmethyl)-4-oxo-1,4-dihydro-3-quinolinecarboxamide]",–,–,–,1000

# Next, values leading:
IC50 (HCMV polymerase; [1]) [nM],IC50 (VZV polymerase) [nM],IC50 (HSV polymerase) [nM],IC50 (HCMV polymerase) [nM],SMILES
500,2000,1800,–,"Cn1cc(C(=O)NCc2ccc(Cl)cc2)c(=O)c2cc(C(C)(C)CCO)ccc21 [Example 1, N-(4-chlorobenzyl)-6-(3-hydroxy-1,1-dimethylpropyl)-1-methyl-4-oxo-1,4-dihydro-3-quinolinecarboxamide]"
7800,–,–,–,"Cn1cc(C(=O)NCc2ccc(Cl)cc2)c(=O)c2cc(CO)ccc21 [Example 2, N-(4-Chlorobenzyl)-6-(hydroxymethyl)-1-methyl-4-oxo-1,4-dihydro-3-quinolinecarboxamide]"
2500,–,–,–,"Cn1cc(C(=O)NCc2ccc(Cl)cc2)c(=O)c2cc(CN3CCSCC3)ccc21 [Example 7, N-(4-Chlorobenzyl)-1-methyl-4-oxo-6-(4-thiomorpholinyl-methyl)-1,4-dihydro-3-quinolinecarboxamide]"
4700,–,–,–,"Cn1cc(C(=O)NCc2ccc(Cl)cc2)c(=O)c2cc(CN3CC[S+]([O-])CC3)ccc21 [Example 9, N-(4-chlorobenzyl)-1-methyl-4-oxo-6-[(1-oxo-1',4-thiazinan-4-yl)methyl]-1,4-dihydro-3-quinolinecarboxamide]"
